# Source: US20110195432A1, “METHODS FOR THE SELECTION OF THERAPEUTIC TREATMENTS FOR CANCER” (priority 2008, published 2011)
# Legend:
# [1] = system: AR; assay: Real-time PCR of AR gene expression, LNCaP cells; assay type: cell-based
# Description: (§1) All samples were run in triplicate. The vehicle-treated sample was set to 1.
# [2] = system: PSA; assay: Real-time PCR of AR target gene expression, LNCaP cells; assay type: cell-based; conditions: increasing doses, vehicle set to 1
# Description: as §1
# [3] = system: AR; assay: Western blot of AR protein levels, LNCaP cells; assay type: cell-based
# [4] = system: HSP90 and AR
# Method: (§2) LNCaP and VCaP cells were grown according to ATCC instructions. Sulforaphane (SFN, #S4441 Sigma, St. Louis, Mo.) was re-suspended in DMSO. Vehicle-treated cells received the respective vehicle controls Immunoprecipitations were carried out after treatment with sulforaphane (20 μM) or vehicle for 4 hours followed by a Western blot for HSP90 and AR. Enrichment was quantified for each immunoprecipitation. Inputs were probed with the indicated antibodies by Western blot and were quantified.
# (§3) Immunoprecipitation and immunoblotting were performed as described (Qian et al., Clin. Cancer Res. 12:634-42, 2006). The following antibodies used in immunoblotting or immunoprecipitations (indicated dilutions are for immunoblotting): AR (1:1000, #06-680 Upstate, Billerica, Mass.); acetylated lysine (#05-515 Upstate, Billerica, Mass.); acetylated tubulin (1:2000, #T6793 Sigma, St. Louis, Mo.); alpha-tubulin (1:10,000, #T6074 Sigma, St. Louis, Mo.); beta-actin (1:5000, #A5441 Sigma, St. Louis, Mo.); ERG-1/2/3, (1:5000, #sc-354X Santa Cruz, Santa Cruz, Calif.); FLAG epitope (#F7425 Sigma, St. Louis, Mo.); GAPDH (1:5000, #sc-32233 Santa Cruz, Santa Cruz, Calif.); HDAC6 (1:1000, #sc-11420 Santa Cruz); HSP90 (1:1000, #SPA-840 Stressgen, Ann Arbor, Mich.); mouse IgG (#sc-2025 Santa Cruz, Santa Cruz, Calif.). The following secondary antibodies were used: ECL-conjugated anti-mouse IgG, (1:5000, #A6782 Sigma, St. Louis, Mo.); ECL-conjugated anti-rabbit IgG (1:3000, #NA934 Amersham, Piscataway, N.J. or 1:10,000, #sc-2004 Santa Cruz, Santa Cruz, Calif.). X-ray exposures were scanned as uncompressed images and bands were quantified by densitometry with Quantity One software (Bio-Rad, Hercules, Calif.). Intensity values were normalized to those of the endogenous controls. The vehicle sample was set to 1. Enrichment was calculated as: (intensity IP/intensity input)/(intensity IgG/intensity input) or intensity IP/input (FIG. 1B).
# [5] = system: HSP90; conditions: sulforaphane 20 μM
# Method: as §2, §3
# [6] = system: HDAC6; conditions: LNCaP cells; sulforaphane versus vehicle
# Method: as §1
# LNCaP cells were transiently transfected with pCDNA3.1 empty vector (Invitrogen, Carlsbad, Calif.) or FLAG-tagged HDAC6 expression vector (Addgene, Cambridge, Mass.) using Lipofectamine LTX and Plus reagents (Invitrogen, Carlsbad, Calif.). Forty-eight hours later, media was replaced for a 16-hour treatment with […] sulforaphane or vehicle. Levels of FLAG, HDAC6, AR, acetylated alpha-tubulin, and actin were measured by Western blot.
# [7] = system: AR; assay: Western blot of AR protein levels, LNCaP cells; assay type: cell-based; remark: listed apart in the source
# Method: as §3
# LNCaP cells were treated with sulforaphane in a dose-response (5 μM to 20 μM) and time-course (12 and 24 hours) manner to investigate the effect of HDAC6 inhibition on AR protein levels. Western blotting was performed as described in Example 1. […]
# [8] = system: acetylated alpha-tubulin; assay: Western blot of acetylated alpha-tubulin, LNCaP cells; assay type: cell-based
# Method: The vehicle sample was set to 1.
# LNCaP cells were transiently transfected with either a siRNA sequence complementary to the luciferase gene ([…]; SEQ ID NO: 8) or to HDAC6 ([…]; SEQ ID NO: 9) using DharmaFECT 3 transfection reagent for a final concentration of 100 nM (Dharmacon, Lafayette, Colo.). At 48, 72, and 96 hours post-transfection, cells were harvested. Levels of protein expression by Western blot were quantified.
# [9] = system: AR; assay: Real-time PCR of AR gene expression, VCaP cells; assay type: cell-based
# Description: as §1
# [10] = 4 hour treatment, vehicle versus sulforaphane
# [11] = FLAG-HDAC6 transfected LNCaP cells, sulforaphane-treated, versus empty-vector, sulforaphane-treated cells
# [12] = empty-vector transfected LNCaP cells, 16-hour treatment with 15 nM sulforaphane versus vehicle
smiles,measurement,setting,value
"C[S+]([O-])CCCCN=C=S (stereo not drawn) [sulforaphane, 1-Isothiocyanato-4-methylsulfinylbutane]",AR transcript levels at highest dose,[1]; 20 μM,declined
same,AR transcripts,"[1]; increasing doses of sulforaphane, or TSA, vehicle set to 1",not consistently suppressed
same,AR target gene expression (PSA),[2],dose-dependent reduction
same,levels of AR in input whole cell lysate,[3]; [10],similar
same,AR protein depletion in HDAC6-over-expressing cells,[3]; [11],attenuated
same,AR protein levels,"[3]; LNCaP cells, 12 hours, highest doses tested (10-20 μM)",decreased
same,onset of AR protein decline,[3]; after sulforaphane treatment,6 to 12 h
same,AR protein,[3]; [12],decreased
same,interaction between HSP90 and AR,"[4]; 4 hour sulforaphane treatment, as opposed to vehicle",disrupted
same,Levels of acetylation of the AR,[4]; [10],similar
same,enrichment of acetylated lysines on the HSP90 protein,"[5]; LNCaP cells, four hours, versus vehicle-treated cells",increased enrichment of acetylated lysines on the HSP90 protein
same,levels of HSP90 in input whole cell lysate,"[5]; 4 hours, versus vehicle",similar
same,HDAC6 transcript levels,[6],reduce HDAC6 transcript levels
same,AR steady state level with simultaneous MG132 treatment,"[7]; 24 hours, sulforaphane 20 μM or 300 nM TSA with 10 μM MG132",restored the AR steady state level close to that seen in the vehicle-treated control
same,AR protein in the absence of MG132,"[7]; 24 hours, sulforaphane 20 μM or 300 nM TSA, versus vehicle-treated cells",dramatic reductions
same,AR protein levels at 24 hours,"[7]; sulforaphane 15 μM and 20 μM, TSA",persisted
same,alpha-tubulin acetylation in HDAC6-over-expressing cells,[8]; [11],blunted
same,acetylated tubulin,[8]; [12],increased
same,levels of acetylated tubulin in input whole cell lysate,"[8]; sulforaphane 20 μM, 4 hours, versus vehicle",increased levels of acetylated alpha-tubulin
same,AR transcript levels at highest doses,[9]; 15-20 μM,declined
same,AR transcripts,"[9]; 24 hours, increasing doses of sulforaphane, or TSA, vehicle set to 1",not consistently suppressed
